Laboratory results taken from patent US9422238B2, “ICMT inhibitors” (National University of Singapore, priority 2012, dated 2016).
Converted amounts (≈) assume the structure as drawn. “And” between values parts separate entries of the source, which are not always exact repeats. Identical values can stand only once. Like-named read-outs stand apart in the source and are kept apart here.

Legend:
[1] = system: PC3 Prostrate cancer cells; assay: Antiproliferative activity / cell viability (MTS, 72 h); format: cell-based, human; details: Homo sapiens
Protocol: The relative number of the live cells was determined using the CellTiter® 96 AQueous One Solution Cell Proliferation Assay (Promega). Determinations were made in duplicates or triplicates.

[2] = system: Human hepatocellular carcinoma HepG2 cells; assay: Cell viability (MTS, 72 h); format: cell-based
Protocol: Cell viability was determined from the expression:
The plot was constrained to ≧0 and ≦100%.
Human hepatocellular carcinoma HepG2 and human pancreatic cancer MIA PACA II cells were obtained from ATCC (Rockville, Md.). They were grown in DMEM (high glucose, Invitrogen) supplemented with 10% FBS, 50 μg/mL penicillin and 50 μg/mL streptomycin, 37° C., 5% CO2 until they reached 80-90% confluency, after which they were subcultured. Passage numbers were kept within 7-14 passages for both cell types.

physchem = details: for solubility at 24 h: 25 °C; for solubility at 24 h / solubility at 3 h / solubility: pH 7.4, aqueous buffer, kinetic from dmso stock
Protocol: The turbid solution was delivered to the filter plate, agitated for a specific time period and then filtered. The concentration of dissolved compound in the filtrate was determined by uv spectroscopy and referred to pre-constructed calibration curves for solubility determination.
(§1) Determination of aqueous solubility was carried out on Multiscreen® Solubility filter plates (Millipore-MSSLBPC10) from Millipore Corporation (MA, USA). The protocol (PC2445EN00, Millipore Corporation) was followed. Briefly, various concentrations of the test compound were prepared in Universal buffer (pH 7.4)/acetonitrile/DMSO. The UV absorbances of these solutions were obtained at a pre-determined wavelength and used to construct a calibration curve for the test compound. Next, a stock solution of the test compound in DMSO was prepared at a known concentration, diluted with Universal buffer (pH 7.4), dispensed into wells in the Multiscreen Solubility filter plate, and agitated for a period of time. The suspension is then filtered, the filtrate collected and diluted with acetonitrile to give the same solvent composition used to prepare the calibration solutions. The absorbance of the diluted filtrate was then read at the predetermined wavelength and the concentration of the filtrate (taken here to be equivalent to the solubility of the test compound) was determined from the calibration curve.
as §1, with “24 hours at room temperature (25 deg C.). […]” for “a period of time.”, “was” for “is then”, “was” for “was then”, “(equivalent” for “(taken here to be equivalent”, “curve. […] LCMS determinations were made on an Agilent 1200 Series HPLC linked to a AB Sciex Instruments 3200 Q TRAP LC/MS/MS. Separations were carried out on a Phenomenex Luna column [3u, C18(2), 100A, 5×4.6 mm]. […] Quantification was based on the ratio of peak areas of the daughter ion and the mother ion (M+H), normalized against the same ratio obtained for the internal standard. The solubility determinations were carried out in triplicates or more from two different stock solutions.” for “curve.”

[3] = PC-3M, Table 3, 72 h, mean (SD), read-out: IC50 PC3
[4] = Table 6, from earlier table, read-out: IC50 (μM) PC3
[5] = HepG2, Table 6, mean (SD), read-out: IC50 (μM) HepG2
[6] = HepG2, further testing, 72 h, mean (SD), read-out: IC50 HepG2
[7] = HepG2, read-out: in vitro IC50 (horizontal line in FIGS. 14 and 15), cell line not stated

SMILES | IC50 [1, 3] [µM] | IC50 [1, 4] [µM] | IC50 [2, 5] [µM] | IC50 [2, 6] [µM] | IC50 [2, 7] [µM] | solubility at 24 h (physchem) | solubility at 3 h (physchem) [µM] | Aqueous Solubility (pH 7.4) 24 hours (physchem; 24 h, pH 7.4) | solubility (physchem) [µg/mL] | Solubility (μM) (physchem; 24 h, pH 7.4)
CCCCCCCCn1cc(CC(N)=O)c2cc(-c3cccc(C)c3)ccc21 [Cysmethynil, 2-[5-(3-methylphenyl)-1-octyl-1H-indolo-3-yl]acetamide, reference compound] | 24.8 | 25.2 | 21.8 | 21.8 | 22 | < 1 µM | < 1 |  |  | 
CCCCCCCCn1cc(CN(CC)CC)c2cc(-c3cnc(N)nc3)ccc21 [Compound 8-12, 5-(3-Diethylaminomethyl-1-octyl-1H-indol-5-yl)-pyrimidin-2-ylamine] | 2.55 | 2.55 | 1.65 | 1.65 | 1.7 | 156 µM and 64 µg/mL | 166 (≈ 67.7 µg/mL) | 155.9 (6.4) μM | ~65 (≈ 159 µM) | 
CCCCCCCCn1c2c(c3cc(-c4cnc(N)nc4)ccc31)CN(C)CC2 [Compound 305, 8-(2′-amino-pyrimidin-5′-yl)-2-methyl-5-n-octyl-1,2,3,4-tetrahydropyrido[4,3-b]indole] | 4.31 |  |  | 1.73 |  | 40.6 µM (≈ 15.9 µg/mL) | 49.5 (≈ 19.4 µg/mL) |  | 20 (≈ 51.1 µM) | 40.6 (1.75) μM
